Results: patent publication US9822130B2, “Triazolo-pyrazinyl derivatives useful as soluble guanylate cyclase activators” (Merck Sharp & Dohme Corp., priority 2014, dated 2017)

Biological target: T1, sGC α1/β1 heterodimer stably expressed in CHO-K1 cell line (CHO-K1/sGC) (Homo sapiens, UniProt Q02108+Q02153)
T1 construct: expressed in transfected cells
T1 sequence (Q02108 1-690): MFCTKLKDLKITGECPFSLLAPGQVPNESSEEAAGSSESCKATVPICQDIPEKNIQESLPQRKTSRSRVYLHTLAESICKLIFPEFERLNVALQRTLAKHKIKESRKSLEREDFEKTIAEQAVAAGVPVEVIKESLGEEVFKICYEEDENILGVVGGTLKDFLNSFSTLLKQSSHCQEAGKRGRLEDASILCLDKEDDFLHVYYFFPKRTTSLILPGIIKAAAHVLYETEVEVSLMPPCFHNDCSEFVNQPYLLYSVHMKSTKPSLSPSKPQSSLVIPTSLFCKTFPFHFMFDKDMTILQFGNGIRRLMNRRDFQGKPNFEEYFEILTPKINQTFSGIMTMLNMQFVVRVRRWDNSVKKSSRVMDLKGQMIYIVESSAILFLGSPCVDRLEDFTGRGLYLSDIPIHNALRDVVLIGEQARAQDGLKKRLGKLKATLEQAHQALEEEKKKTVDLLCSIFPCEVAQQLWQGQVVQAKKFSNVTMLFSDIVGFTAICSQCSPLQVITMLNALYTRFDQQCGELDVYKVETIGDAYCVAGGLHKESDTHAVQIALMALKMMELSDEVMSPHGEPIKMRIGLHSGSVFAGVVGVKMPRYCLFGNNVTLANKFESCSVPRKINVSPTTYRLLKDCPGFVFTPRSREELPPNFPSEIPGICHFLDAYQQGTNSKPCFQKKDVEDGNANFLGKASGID
T1 sequence (Q02153 1-619): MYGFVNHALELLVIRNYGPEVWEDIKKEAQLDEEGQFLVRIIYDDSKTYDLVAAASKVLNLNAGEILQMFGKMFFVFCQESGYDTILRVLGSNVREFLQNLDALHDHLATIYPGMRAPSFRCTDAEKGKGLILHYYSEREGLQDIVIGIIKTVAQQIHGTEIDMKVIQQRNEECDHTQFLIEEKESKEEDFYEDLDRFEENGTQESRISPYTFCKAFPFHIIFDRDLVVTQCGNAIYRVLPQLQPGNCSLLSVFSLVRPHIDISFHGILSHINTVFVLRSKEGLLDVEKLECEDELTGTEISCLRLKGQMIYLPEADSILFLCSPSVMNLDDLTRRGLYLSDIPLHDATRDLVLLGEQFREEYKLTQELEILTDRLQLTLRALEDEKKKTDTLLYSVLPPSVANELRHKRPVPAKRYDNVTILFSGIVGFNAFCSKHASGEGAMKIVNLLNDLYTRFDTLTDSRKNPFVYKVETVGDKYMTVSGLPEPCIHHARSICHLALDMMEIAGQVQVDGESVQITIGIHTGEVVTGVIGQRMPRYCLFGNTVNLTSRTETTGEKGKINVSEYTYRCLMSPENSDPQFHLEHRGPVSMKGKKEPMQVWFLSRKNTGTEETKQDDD
Assay: Cell-based sGC Functional Assay (CASA Assay), cGMP generation
Conditions: CHO-K1/sGC cells, 1 hr at 37° C., cGMP by HTRF, presence or absence of 1 μM DETA-NO not given; for EC50: 4P fit, read-out: IP (nM) (inflection point)
Method in brief: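 Readout is HTRF cGMP in lysates, normalised to the maximal response of reference sGC activator Compound A (100%), with a 4P fit giving IP and fold induction. Cells were CHO-K1/sGC (human α1/β1) in EBSS buffer with IBMX, incubated 1 hr at 37° C with compound. Run with and without 1 μM DETA-NO; final DMSO 2.5%.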

Structure (SMILES): Cc1ccc(C2(C)C(=O)Nc3nc(-c4cn5ncnc5c(CCCC(F)(F)F)n4)nc(N)c32)nc1 (centres unmarked) [Example 46B, 4-amino-5-methyl-5-(5-methylpyridin-2-yl)-2-(8-(4,4,4-trifluorobutyl)-[1,2,4]triazolo[1,5-a]pyrazin-6-yl)-5H-pyrrolo[2,3-d]pynmidin-6(7H)-one]
- EC50: 10.1 nM

Structure (SMILES): CC1(c2ccc(C#N)cn2)C(=O)Nc2nc(-c3cn4ncnc4c(CCCC(F)(F)F)n3)nc(N)c21 (centres unmarked) [Example 48A, 6-(4-amino-5-methyl-6-oxo-2-(8-(4,4,4-trifluorobutyl)-[1,2,4]triazolo[1,5-a]pyrazin-6-yl)-6,7-dihydro-5H-pyrrolo[2,3-d]pyrimidin-5-yl)nicotinonitrile]
- EC50: 77.9 nM

Structure (SMILES): CC1(c2cnc(C(F)(F)F)cn2)C(=O)Nc2nc(-c3cn4ncnc4c(CCCC(F)(F)F)n3)nc(N)c21 (centres unmarked) [Example 50B, 4-amino-5-methyl-2-(8-(4,4,4-trifluorobutyl)-[1,2,4]triazolo[1,5-a]pyrazin-6-yl)-5-(5-(trifluoromethyl)pyrazin-2-yl)-5H-pyrrolo[2,3-d]pyrimidin-6(7H)-one]
- EC50: 150 nM

Structure (SMILES): CCCc1nc(-c2nc(N)c3c(n2)NC(=O)[C@@]3(C)c2ccc(F)cc2)cn2ncnc12 [Example 52A, (S)-4-amino-5-(4-fluorophenyl)-5-methyl-2-(8-propyl-[1,2,4]triazolo[1,5-a]pyrazin-6-yl)-5,7-dihydro-6H-pyrrolo[2,3-d]pyrimidin-6-one]
- EC50: 63.2 nM

Structure (SMILES): CCCc1nc(-c2nc(N)c3c(n2)NC(=O)C3(C)c2ccc(Cl)cc2)cn2ncnc12 (centres unmarked) [Example 53A, 4-amino-5-(4-chlorophenyl)-5-methyl-2-(8-propyl-[1,2,4]triazolo[1,5-a]pyrazin-6-yl)-5H-pyrrolo[2,3-d]pyrimidin-6(7H)-one]
- EC50: 26.9 nM

Structure (SMILES): CCCc1nc(-c2nc(N)c3c(n2)NC(=O)C3(C)c2ccc(F)cn2)cn2ncnc12 (centres unmarked) [Example 54B, 4-amino-5-(5-fluoropyridin-2-yl)-5-methyl-2-(8-propyl-[1,2,4]triazolo[1,5-a]pyrazin-6-yl)-5H-pyrrolo[2,3-d]pyrimidin-6(7H)-one]
- EC50: 318 nM

Structure (SMILES): CCCc1nc(-c2nc(N)c3c(n2)NC(=O)C3(c2ccc(C(F)(F)F)cn2)C2CC2)cn2ncnc12 (centres unmarked) [Example 56A, 4-amino-5-cyclopropyl-2-(8-propyl-[1,2,4]triazolo[1,5-a]pyrazin-6-yl)-5-(5-(trifluoromethyl)pyridin-2-yl)-5H-pyrrolo[2,3-d]pyrimidin-6(7H)-one]
- EC50: 384 nM

Structure (SMILES): CCCc1nc(-c2nc(N)c3c(n2)NC(=O)C3(c2ccc(Cl)cn2)C2CC2)cn2ncnc12 (centres unmarked) [Example 57A, 4-amino-5-(5-chloropyridin-2-yl)-5-cyclopropyl-2-(8-propyl-[1,2,4]triazolo[1,5-a]pyrazin-6-yl)-5H-pyrrolo[2,3-d]pynmidin-6(7H)-one]
- EC50: 577 nM

Structure (SMILES): CCCc1nc(-c2nc(N)c3c(n2)NC(=O)C3(c2ccc(F)c(F)c2)C2CC2)cn2ncnc12 (centres unmarked) [Example 58A, 4-amino-5-cyclopropyl-5-(3,4-difluorophenyl)-2-(8-propyl-[1,2,4]triazolo[1,5-a]pyrazin-6-yl)-5H-pyrrolo[2,3-d]pyrimidin-6(7H)-one]
- EC50: 242 nM

Structure (SMILES): CCCc1nc(-c2nc(N)c3c(n2)NC(=O)C3(c2ccc(F)cn2)C2CC2)cn2ncnc12 (centres unmarked) [Example 59A, 4-amino-5-cyclopropyl-5-(5-fluoropyridin-2-yl)-2-(8-propyl-[1,2,4]triazolo[1,5-a]pyrazin-6-yl)-5H-pyrrolo[2,3-d]pyrimidin-6(7H)-one]
- EC50: 263 nM

Structure (SMILES): CCCCc1nc(-c2nc(N)c3c(n2)NC(=O)[C@@]3(C)c2ccc(F)cc2)cn2ncnc12 [Example 60A, (S)-4-amino-2-(8-butyl-[1,2,4]triazolo[1,5-a]pyrazin-6-yl)-5-(4-fluorophenyl)-5-methyl-5,7-dihydro-6H-pyrrolo[2,3-d]pyrimidin-6-one]
- EC50: 22.6 nM

Structure (SMILES): CCCCc1nc(-c2nc(N)c3c(n2)NC(=O)C3(C)c2ccc(F)cn2)cn2ncnc12 (centres unmarked) [Example 61B, 4-amino-2-(8-butyl-[1,2,4]triazolo[1,5-d]pyrazin-6-yl)-5-(5-fluoropyridin-2-yl)-5-methyl-5H-pyrrolo[2,3-d]pyrimidin-6(7H)-one]
- EC50: 9.7 nM

Structure (SMILES): CCCCc1nc(-c2nc(N)c3c(n2)NC(=O)C3(C)c2ccc(Cl)c(F)c2)cn2ncnc12 (centres unmarked) [Example 62B, 4-amino-2-(8-butyl-[1,2,4]triazolo[1,5-a]pyrazin-6-yl)-5-(4-chloro-3-fluorophenyl)-5-methyl-5H-pyrrolo[2,3-d]pyrimidin-6(7H)-one]
- EC50: 51 nM

Structure (SMILES): CCCCc1nc(-c2nc(N)c3c(n2)NC(=O)C3(C)c2ccc(Cl)cc2)cn2ncnc12 (centres unmarked) [Example 63A, 4-amino-2-(8-butyl-[1,2,4]triazolo[1,5-a]pyrazin-6-yl)-5-(4-chlorophenyl)-5-methyl-5H-pyrrolo[2,3-d]pyrimidin-6(7H)-one]
- EC50: 21.9 nM

Structure (SMILES): CCCCc1nc(-c2nc(N)c3c(n2)NC(=O)C3(C)c2ccc(F)c(F)c2)cn2ncnc12 (centres unmarked) [Example 64B, 4-amino-2-(8-butyl-[1,2,4]triazolo[1,5-a]pyrazin-6-yl)-5-(3,4-difluorophenyl)-5-methyl-5H-pyrrolo[2,3-d]pyrimidin-6(7H)-one]
- EC50: 5.1 nM
- Emax (read-out: % Act. (percent activation relative to maximum cGMP production of Compound A = 100%)): 90%

Structure (SMILES): CCCCc1nc(-c2nc(N)c3c(n2)NC(=O)C3(c2ccc(F)c(F)c2)C2CC2)cn2ncnc12 (centres unmarked) [Example 65A, 4-amino-2-(8-butyl-[1,2,4]triazolo[1,5-a]pyrazin-6-yl)-5-cyclopropyl-5-(3,4-difluorophenyl)-5H-pyrrolo[2,3-d]pyrimidin-6(7H)-one]
- EC50: 2.6 nM

Structure (SMILES): CCCCc1nc(-c2nc(N)c3c(n2)NC(=O)C3(c2ccc(F)cn2)C2CC2)cn2ncnc12 (centres unmarked) [Example 66A, 4-amino-2-(8-butyl-[1,2,4]triazolo[1,5-a]pyrazin-6-yl)-5-cyclopropyl-5-(5-fluoropyridin-2-yl)-5H-pyrrolo[2,3-d]pyrimidin-6(7H)-one]
- EC50: 34.2 nM

Structure (SMILES): CCCCc1nc(-c2nc(N)c3c(n2)NC(=O)C3(C)c2ccc(C(F)(F)F)cn2)cn2ncnc12 (centres unmarked) [Example 67B, 4-amino-2-(8-butyl-[1,2,4]triazolo[1,5-a]pyrazin-6-yl)-5-methyl-5-(5-(trifluoromethyl)pyridin-2-yl)-5H-pyrrolo[2,3-d]pyrimidin-6(7H)-one]
- EC50: 25.5 nM

Structure (SMILES): CCCCc1nc(-c2nc(N)c3c(n2)NC(=O)C3(c2ccc(Cl)cn2)C2CC2)cn2ncnc12 (centres unmarked) [Example 68A, 4-amino-2-(8-butyl-[1,2,4]triazolo[1,5-a]pyrazin-6-yl)-5-(5-chloropyridin-2-yl)-5-cyclopropyl-5H-pyrrolo[2,3-d]pyrimidin-6(7H)-one]
- EC50: 18.7 nM

Structure (SMILES): CCCCc1nc(-c2nc(N)c3c(n2)NC(=O)C3(C)c2ccc(Cl)cn2)cn2ncnc12 (centres unmarked) [Example 69A, 4-amino-2-(8-butyl-[1,2,4]triazolo[1,5-a]pyrazin-6-yl)-5-(5-chloropyridin-2-yl)-5-methyl-5H-pyrrolo[2,3-d]pyrimidin-6(7H)-one]
- EC50: 13.7 nM

Structure (SMILES): CCCCc1nc(-c2nc(N)c3c(n2)NC(=O)C3(c2ccc(C(F)(F)F)cn2)C2CC2)cn2ncnc12 (centres unmarked) [Example 70A, 4-amino-2-(8-butyl-[1,2,4]triazolo[1,5-a]pyrazin-6-yl)-5-cyclopropyl-5-(5-(trifluoromethyl)pyridin-2-yl)-5H-pyrrolo[2,3-d]pyrimidin-6(7H)-one]
- EC50: 41.8 nM

Structure (SMILES): CCCCc1nc(-c2nc(N)c3c(n2)NC(=O)C3(C)c2ccc(C)cn2)cn2ncnc12 (centres unmarked) [Example 71B, 4-amino-2-(8-butyl-[1,2,4]triazolo[1,5-a]pyrazin-6-yl)-5-methyl-5-(5-methylpyridin-2-yl)-5H-pyrrolo[2,3-d]pyrimidin-6(7H)-one]
- EC50: 5.5 nM
